Type in all cases: functional
Experiment [1] has as its system Pseudomonas aeruginosa. In words: Antibacterial activity against Pseudomonas aeruginosa ATCC 27853 at 10 ug/ml after 24 hrs by disc diffusion method. The settings on record: ATCC 27853, 24 h, read-out: IZ. For orientation: In agar diffusion tests the substance spreads into inoculated agar from a disc or well.
The subject of experiment [2] is Escherichia coli. In words: Antibacterial activity against Escherichia coli ATCC 25922 after 24 hrs at 10 ug/ml by disc diffusion method. The settings on record: ATCC 25922, 24 h, read-out: IZ.
The test system of experiment [3] is Pseudomonas aeruginosa. In words: Antibacterial activity against Pseudomonas aeruginosa ATCC 27853 after 24 hrs by disc diffusion method. The settings on record: ATCC 27853, 24 h.
Experiment [4] deals with Klebsiella pneumoniae. In words: Antibacterial activity against Klebsiella pneumoniae after 24 hrs at 10 ug/ml by disc diffusion method. As to conditions: read-out: IZ.
Experiment [5] deals with Aspergillus flavus. In words: Antifungal activity against Aspergillus flavus NICM524 at 10 ug/ml after 3 to 4 days by serial dilution method. The settings on record: read-out: IZ.
Experiment [6] concerns Staphylococcus aureus. In words: Antibacterial activity against Staphylococcus aureus ATCC 25923 at 10 ug/ml after 24 hrs by disc diffusion method. The settings on record: ATCC 25923, 24 h, read-out: IZ.
The subject of experiment [7] is Aspergillus fumigatus. In words: Antifungal activity against Aspergillus fumigatus NICM902 at 10 ug/ml after 3 to 4 days by serial dilution method. As to conditions: read-out: IZ.
For experiment [8], the system named is Escherichia coli. In words: Antibacterial activity against Escherichia coli ATCC 25922 after 24 hrs by disc diffusion method. As to conditions: ATCC 25922, 24 h.
The test system of experiment [9] is Candida albicans. In words: Antifungal activity against Candida albicans NICM3100 at 10 ug/ml after 3 to 4 days by serial dilution method. As to conditions: read-out: IZ.
The subject of experiment [10] is Staphylococcus aureus. In words: Antibacterial activity against Staphylococcus aureus ATCC 25923 after 24 hrs by disc diffusion method. The settings on record: ATCC 25923, 24 h.
The test system of experiment [11] is Klebsiella pneumoniae. In words: Antibacterial activity against Klebsiella pneumoniae after 24 hrs by disc diffusion method.
Experiment [12] relates to Aspergillus fumigatus. In words: Antifungal activity against Aspergillus fumigatus NICM902 after 3 to 4 days by serial dilution method.
Experiment [13] concerns Talaromyces marneffei. In words: Antifungal activity against Penicillium marneffei after 3 to 4 days by serial dilution method.
Experiment [14] relates to Talaromyces marneffei. In words: Antifungal activity against Penicillium marneffei at 10 ug/ml after 3 to 4 days by serial dilution method. The settings on record: read-out: IZ.
Experiment [15] deals with Candida albicans. In words: Antifungal activity against Candida albicans NICM3100 after 3 to 4 days by serial dilution method.
In experiment [16] the test system is Aspergillus flavus. In words: Antifungal activity against Aspergillus flavus NICM524 after 3 to 4 days by serial dilution method.

In ChEMBL document CHEMBL1147888, “Convenient one pot synthesis and antimicrobial evaluation of some new Mannich bases carrying 4-methylthiobenzyl moiety” (2007) one finds zone of inhibition and MIC data, which are given here for four molecules.

Values after ≈ are worked out from the molar mass of the structure shown.

The term MIC denotes the lowest concentration found to suppress growth. As to `CSc1ccc(/C=N/n2c(Cc3ccc(SC)cc3)nn(CN3CCN(C)CC3)c2=S)cc1`, the zone of inhibition at 10 µg/mL was 12 mm in [1]; 10 mm in experiment [2]; 10 mm in [4]; 12 mm in experiment [5]; 12 mm in experiment [6]; 12 mm in experiment [7]. The zone of inhibition at 10 µg/mL came to 10 mm in [9] and 12 mm in [14]. Also, the MIC in [3] stood at 12.5 µg/mL (≈ 25.1 µM); in [8] it was 25 µg/mL (≈ 50.1 µM); in [10] it was 25 µg/mL (≈ 50.1 µM); in experiment [11] it was 12.5 µg/mL (≈ 25.1 µM); in experiment [12], 12.5 µg/mL (≈ 25.1 µM); in experiment [13], 12.5 µg/mL (≈ 25.1 µM). Also, the MIC in experiment [15] is 12.5 µg/mL (≈ 25.1 µM); in experiment [16] it was 25 µg/mL (≈ 50.1 µM).
Regarding `CSc1ccc(Cc2nn(CN3CCOCC3)c(=S)n2/N=C/c2ccc3c(c2)OCO3)cc1`, the zone of inhibition at 10 µg/mL was found to be 12 mm in [1]; 10 mm in experiment [2]; 10 mm in experiment [4]; 10 mm in [5]; 10 mm in experiment [6]; 12 mm in [7]. The zone of inhibition at 10 µg/mL in experiment [9] and in [14] was 10 mm throughout. Further, the minimal inhibitory concentration (MIC) in experiment [3] worked out at 12.5 µg/mL (≈ 25.8 µM); in experiment [8], 25 µg/mL (≈ 51.7 µM); in experiment [10], 25 µg/mL (≈ 51.7 µM); in experiment [11], 12.5 µg/mL (≈ 25.8 µM); in experiment [12] it was 12.5 µg/mL (≈ 25.8 µM); in [13] it was 12.5 µg/mL (≈ 25.8 µM). Besides, the MIC in [15] came to 12.5 µg/mL (≈ 25.8 µM); in [16], 25 µg/mL (≈ 51.7 µM).
Regarding `CSc1ccc(Cc2nn(CN3CCN(C)CC3)c(=S)n2/N=C/c2ccc(F)cc2)cc1`, the zone of inhibition at 10 µg/mL worked out at 10 mm in experiment [1]; 12 mm in experiment [2]; 10 mm in experiment [4]; 10 mm in experiment [5]; 12 mm in experiment [6]; 12 mm in experiment [7]. The zone of inhibition at 10 µg/mL in experiment [9] and in [14] was 10 mm throughout. Besides, the MIC in [3] stood at 12.5 µg/mL (≈ 26.6 µM); in experiment [8], 25 µg/mL (≈ 53.1 µM); in [10], 25 µg/mL (≈ 53.1 µM); in experiment [11], 12.5 µg/mL (≈ 26.6 µM); in experiment [12], 12.5 µg/mL (≈ 26.6 µM); in experiment [13] it was 12.5 µg/mL (≈ 26.6 µM). Further, the MIC amounted to 12.5 µg/mL (≈ 26.6 µM) in experiment [15] and 25 µg/mL (≈ 53.1 µM) in [16].
On to `CSc1ccc(Cc2nn(CN3CCN(C)CC3)c(=S)n2/N=C/c2ccc(Cl)cc2Cl)cc1`, for which the zone of inhibition at 10 µg/mL worked out at 25 mm in experiment [1]; 18 mm in [2]; 20 mm in experiment [4]; 18 mm in experiment [5]; 19 mm in experiment [6]; 22 mm in [7]. The zone of inhibition at 10 µg/mL came out at 20 mm in experiment [9] and 18 mm in experiment [14]. The MIC was found to be 6 µg/mL (≈ 11.5 µM) in experiment [3]; 12.5 µg/mL (≈ 24 µM) in experiment [8]; 12.5 µg/mL (≈ 24 µM) in [10]; 6 µg/mL (≈ 11.5 µM) in experiment [11]; 6 µg/mL (≈ 11.5 µM) in [12]; 6 µg/mL (≈ 11.5 µM) in experiment [13]. Besides, the values for the MIC in [15] and in experiment [16] were 6 µg/mL (≈ 11.5 µM) and 12.5 µg/mL (≈ 24 µM), respectively.
